According to patent publication EP4644391A1, “NOVEL PHENYLQUINOLONE COMPOUND HAVING ANTIBACTERIAL AND ANTICANCER FUNCTIONS, AND PREPARATION THEREOF” (Alphamol Science Ltd (Shanghai), priority 2022, dated 2024):
≈ marks a conversion by molar mass, not a printed value.

Assays:
[1] = tested on: human breast cancer cell MCF-7; experiment: In vitro anticancer activity test (MTT cell proliferation assay); type: cell-based; conditions: MCF7
Protocol: The anticancer activity of the compounds was tested using an in vitro cancer cell tests. The specific test method is as follows: • 1. Cell recovery and culture method: the cryovial was taken out from the liquid nitrogen container firstly, soaked directly in 37°C warm water, and shaked from time to time to let it thaw as soon as possible. Then, the cryovial was transferred to a clean bench, and the lid was open. […] Then, the supernatant was discarded, complete culture medium containing 10% fetal bovine serum was added to resuspend the cells, the cells was counted, the cell density was adjusted, and then inoculated into a culture bottle. The culture bottle was placed in a cell culture incubator at 5% CO2 and 37°C. The complete culture medium was replaced once the next day and the culture was continued. • 2. Cell passaging method: adherent cells in the logarithmic growth phase were placed in a clean bench, the original culture medium was discarded, and washed three times with 1×PBS. An appropriate amount of 0.25% trypsin digestion solution was added to moisten the cells, and then the trypsin solution was aspirated. […] When 90% of the cells become round, the cells were moved immediately to the clean bench and complete culture medium was added to terminate digestion. Then, the cells were dislodged by pipetting up and down with a rubber-tipped dropper to single cells. The cells were counted, and the cell density was adjusted. The cells were inoculated into a suitable culture bottle or dish, added enough complete culture medium, and placed in a cell culture incubator at 5% CO2 and 37°C for static culture. For suspension cells in the logarithmic phase, the original culture medium was directly centrifuged at 50g for 5 minutes, the supernatant was discarded, and the cells were washed once with PBS and centrifuged. After discarding the supernatant, the complete culture medium was added and the cells were dispersed using a rubber-tipped dropper. The cells are counted, and the cell density was adjusted. […]

E. feacium ATCC 700221 = experiment: In vitro antibacterial activity assay (MIC, broth dilution); type: cell-based; conditions: Table 1; 37°C, 16 hours; read-out: G+ bacteria MIC E. feacium ATCC 700221
Excerpt: The method used to indicate the activity of the compounds in this example is to record the minimum inhibitory concentration (MIC) of the compounds against bacteria. The specific experimental method is as follows: • 1. The bacterial liquid cultured from a single colony was taken, and diluted into autoclaved CAMHB broth in a ratio of 1:1000, and mixed well. • 2. The prepared drug solution was filtered through a sterile 0.22µm syringe filter and placed in a sterile EP tube for later use. • 3. A 96-well plate was taken, and 20µL of drug solution (400µg/mL) was added to each well in the first column of the 96-well plate. Then, 180µL of diluted bacterial liquid was added and mixed well (Perform 3 replicate rows for each drug). The same process was performed for the hydrochloride drug. • 4. 100 µL of diluted bacterial liquid was added to each well in the remaining 11 columns of the 96-well plate. Drugs are the same as above. • 5. Serial dilution: 100µL of liquid was taken from the first column to the second column, mixed well, then 100µL of liquid was taken from the second column to the third column, mixed well, and so on, sequentially diluting down to the last column (column 12). After mixing column 12 well, 100µL of liquid thereof was discarded. The drug concentration in each well was decreased by two-fold serially (the concentration in the first well is 40µg/mL). • 6. Blank CAMHB broth without added bacteria liquid was added to 3 blank wells in the 96-well plate, as negative control. • 7. The diluted bacterial liquid was added to 3 blank wells in the 96-well plate, as positive control. • 8. Incubated at 37°C for 16 hours. • 9. Results reading: the minimum inhibitory concentration is the minimum drug concentration at which no bacterial growth is visible to the naked eye and without turbidity.

[2] = tested on: Staphylococcus aureus ATCC43300; experiment: Systemic blood infection animal model; type: in vivo, mice; conditions: for number of colonies of organs (liver and kidney), antibacterial effect: 4 mg/kg, oral gavage 3 times a day for 7 days (positive drug given as ciprofloxacin hydrochloride)
Protocol: Mice were administered by oral gavage with the drug solvent for the model group and the blank group. • (5) 8 h after the last administration, mice were euthanized by cervical dislocation, disinfected with 75% alcohol, and then necropsied under sterile conditions. The kidneys and livers were harvested, observed and photographed, and the weight was recorded. • (6) The kidneys and livers were placed in a sterile glass grinder and sterile PBS in a volume ten times the weight of the organs was added and grinded. The grinding solutions were taken out, 10-fold serially diluted, smeared to a TSA solid culture medium, and incubated at 37°C for 16 hours, then the colonies were counted. The number of colonies of the organs was calculated to evaluate the therapeutic effect.

[3] = tested on: Staphylococcus aureus ATCC43300; experiment: Resistance test of bacteria against compounds (serial passage, 21 days); type: cell-based; conditions: for MIC: Staphylococcus aureus, ATCC43300, 504 h, read-out: MIC at the end of the experiment
Protocol: This example provides a resistance test of bacteria against compounds, and the specific experimental method is as follows. • 1. […] It was ensured that among the 6 final concentrations of the drug diluted into the wells, some were higher than the original MIC of the bacteria and some were lower than the original MIC of the bacteria. • 2. Preparation of bacterial liquid: 10 mL of culture medium was taken and added to a sterilized plate using a pipette, then 100 µL of the above-mentioned passaged bacterial liquid was added, and mixed well for later use. • 3. The above-mentioned diluted bacterial liquid was taken and added to a 96-well plate using a pipette, 180 µL per well, 3 wells per group, 6 groups in total. 20 µL of drug solution was added to each well (note: it is necessary to replace the pipette tip each time the drug is added), so that the final drug concentrations were 2 µg/mL, 1 µg/mL, 0.8 µg/mL, 0.4 µg/mL, 0.2 µg/mL, 0.1 µg/mL, respectively. The well with 200 µL of diluted bacterial liquid was used as the positive control well, and the well with 200 µL of culture medium was used as the negative control well.
The test object was Staphylococcus aureus (S. aureus). The specific results are shown in FIG1.

Compound	IC50 [1] [µM]	MIC (E. feacium ATCC 700221) [mg/L]	number of colonies of organs (liver and kidney), antibacterial effect [2]	resistance of bacteria in the subsequent culture ([3]; Staphylococcus aureus ATCC43300, serial passage)	MIC [3] [mg/L]	number of colonies of organs (liver and kidney) versus control group ([2]; 1 mg/kg, oral gavage 3 times a day for 7 days)	antibacterial effect in the liver and kidney (number of colonies) compared with ciprofloxacin ([2]; oral gavage 3 times a day for 7 days, Figure 4)	initial MIC compared with ciprofloxacin and vancomycin ([3]; Staphylococcus aureus ATCC43300, start of resistance test)
O=C(O)c1cn(C2CC2)c2cc(N3CCNCC3)c(F)cc2c1=O [Ciprofloxacin]	> 100	> 8	not apparent	increased rapidly	128 (≈ 386 µM)			
O=C(O)c1cn(C2CC2)c2c(Cl)c(-c3ccc(S(=O)(=O)NCCCC(F)(F)F)nc3)c(F)cc2c1=O [Example 29, 8-chloro-1-cyclopropyl-6-fluoro-4-oxo-7-(6-(N-(4,4,4-trifluorobutyl)sulfamoyl)pyridin-3-yl)-1,4-dihydroquinolin-3-carboxylic acid]	1 to 10	1 to 8 (≈ 1.83 to 14.6 µM)	huge difference		2 (≈ 3.65 µM)	significant statistical difference from the control group	very significant antibacterial effect	superior
CCN(CC)CCNC(=O)c1c(C)[nH]c(/C=C2\C(=O)Nc3ccc(F)cc32)c1C [Sunitinib]	3.2 ± 0.3							
